Literature values, collected in patent US6583280B1, “Polyamine analogues having antiproliferative activity” (priority 2000, dated 2003).
Where two headings read alike, the source gives them in different places. Values belong to the compound of their own block, whether it stands above or below them.

Legend:
[1] = test system: L1210 murine leukemia cells
[2] = target: polyamine transport system
[3] = liver and kidney
AdoMetDC = target: T1, AdoMetDC (Homo sapiens, UniProt P17707); conditions: inhibitor of AdoMetDC
T1 sequence (P17707 68-334 limits assumed): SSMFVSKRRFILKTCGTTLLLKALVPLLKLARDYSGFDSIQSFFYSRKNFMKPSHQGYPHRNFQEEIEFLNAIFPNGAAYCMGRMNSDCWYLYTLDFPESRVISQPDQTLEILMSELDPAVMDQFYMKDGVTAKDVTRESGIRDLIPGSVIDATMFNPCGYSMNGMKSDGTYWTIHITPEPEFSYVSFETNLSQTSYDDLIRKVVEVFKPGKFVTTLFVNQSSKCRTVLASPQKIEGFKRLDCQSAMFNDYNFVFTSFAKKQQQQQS
T1 sequence (P17707 1-67 limits assumed): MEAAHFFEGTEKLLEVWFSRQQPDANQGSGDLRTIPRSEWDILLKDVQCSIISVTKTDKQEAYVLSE

[4] = test system: Trypanosoma brucei brucei
[5] = in vitro toxicity
SSAT [6] = target: T2, SSAT (Homo sapiens, UniProt P21673); conditions: multisubstrate inhibitor of SSAT
T2 sequence (P21673 whole entry, species assumed): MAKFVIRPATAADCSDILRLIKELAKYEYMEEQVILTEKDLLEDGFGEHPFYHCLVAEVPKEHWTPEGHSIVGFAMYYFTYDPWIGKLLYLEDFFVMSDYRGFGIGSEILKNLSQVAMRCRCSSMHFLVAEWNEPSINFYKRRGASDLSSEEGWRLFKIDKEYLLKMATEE

SSAT [7] = target: T2, SSAT; conditions: due to lack of uptake
SSAT [8] = test system: SSAT
[9] = test system: two human pancreatic ductal adenocarcinoma cell lines
[10] = test system: human large cell carcinoma (LCLC); conditions: 10 μM
[11] = test system: human small cell lung carcinoma line (SCLC)
ODC = target: T3, ODC (Homo sapiens, UniProt P11926)
T3 sequence (P11926 1-461): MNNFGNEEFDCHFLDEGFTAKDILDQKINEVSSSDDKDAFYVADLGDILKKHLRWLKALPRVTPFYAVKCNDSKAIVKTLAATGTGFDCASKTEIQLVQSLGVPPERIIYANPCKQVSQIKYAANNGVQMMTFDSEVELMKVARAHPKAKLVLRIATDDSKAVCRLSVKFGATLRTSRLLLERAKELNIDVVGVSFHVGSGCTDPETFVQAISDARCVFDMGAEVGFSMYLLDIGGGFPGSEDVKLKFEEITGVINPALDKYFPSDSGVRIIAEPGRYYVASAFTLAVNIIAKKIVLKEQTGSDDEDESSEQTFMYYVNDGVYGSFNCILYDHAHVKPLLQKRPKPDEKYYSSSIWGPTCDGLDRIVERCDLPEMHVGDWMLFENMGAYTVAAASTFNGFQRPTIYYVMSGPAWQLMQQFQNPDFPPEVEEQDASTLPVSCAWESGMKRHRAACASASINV

NMDA receptor = conditions: for IC50: MK-801 binding
[12] = physiological pH
[13] = human, in vivo
recombinant NMDA = recombinant NMDA receptors
[14] = animal study
spermine synthase = target: T4, spermine synthase (Homo sapiens, UniProt P52788); conditions: multisubstrate adduct inhibitor, in vitro
T4 sequence (P52788 1-366): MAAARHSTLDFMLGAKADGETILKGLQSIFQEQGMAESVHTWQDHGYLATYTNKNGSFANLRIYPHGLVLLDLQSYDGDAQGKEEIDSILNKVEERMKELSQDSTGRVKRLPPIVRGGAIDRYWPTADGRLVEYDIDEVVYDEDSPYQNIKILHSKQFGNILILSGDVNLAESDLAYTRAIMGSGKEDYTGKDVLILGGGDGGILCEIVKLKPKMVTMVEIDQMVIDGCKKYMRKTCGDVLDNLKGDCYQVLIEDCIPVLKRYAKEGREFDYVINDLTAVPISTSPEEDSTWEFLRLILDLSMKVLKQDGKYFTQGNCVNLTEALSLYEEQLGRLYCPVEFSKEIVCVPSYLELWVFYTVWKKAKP

[15] = 96th, read-out: 96th IC50 toward L1210 cell growth
[16] = target not printed, read-out: Ki
[17] = L1210 murine leukemia cells, read-out: IC50
[18] = read-out: Ki value for the polyamine transport system

- IC50 [1, 15]: 0.05 µM
- Ki [2, 16]: 1.4 µM
Compound: CCNCCCCNCCCCNCCCCNCC [DEHSPM]
- accumulation of drug and metabolites [3]: accumulate to toxic levels in the liver and kidney

- IC50 [1, 17]: 1.3 µM
- Ki [2, 18]: 17 µM
Compound: CCNCCCNCCCNCCCNCC [DENSpm, N′,N″-bis ethylnorspermine]
- SSAT up-regulation / stimulation (SSAT [8]): 15 fold
- effect on polyamine pools (polyamine pools): deplete all three polyamine pools
- antiproliferative activity [9]: great antiproliferative activity

- increase of MK-801 level (NMDA receptor; agonist): 100%
- fraction in the 3+ catonic state [12]: 63.2%
Compound: C(CNC1CCNCC1)CNC1CCNCC1 [PIP (3,3,3)]

- Ki (ODC; putrescine analogue, target not given): 3 µM
Compound: C#C[C@H](N)CC[C@@H](C)N [RR-MAP, (2R,5R)-6-heptyne-2,5-diamine]
- toxicity in clinical trials [13]: myclosuppression and renal toxicity

- IC50 (recombinant NMDA): 0.2 µM
Compound: c1ccc(CNCCCCN(CCCNCc2ccccc2)Cc2ccccc2)cc1 [TB-3-4]

- agonist concentration at NMDA receptor (NMDA receptor): ≥ 10 µM
- IC50 (NMDA receptor): 80 µM
Compound: NCCCCNCCCCNCCCCN [homospermine]

Continued, compound first:

Compound: CCNCC[C@@H](O)CNCCCCNC[C@H](O)CCNCC [(HO)2DEHPM]
- IC50 [1, 15]: 0.05 µM
- Ki [2, 16]: 1.8 µM
- accumulation of drug and metabolites [3]: not observed

Compound: CN(CC=CCN)CC1OC(n2cnc3c(N)ncnc32)C(O)C1O (stereo not drawn) [AbeAdo, 5′-{[(Z)-4-anino-2-butenyl]methylamino}-5′-deoxyadenosin]
- Ki (AdoMetDC): 0.3 µM
- potency relative to DFMO ([4]; Trypanosoma brucei brucei): at least 100 times
- effect on infection ([4]; Trypanosoma brucei brucei and multi-drug-resistant Trypanosoma brucei rhodesiense infections in mice): cures

Compound: NCCCCN(CCCN)Cc1ccc(B(O)O)cc1 [BBSPD-5]
- IC50 [5]: 5000 µM

Compound: CC(C)(COP(=O)(O)OP(=O)(O)OC[C@H]1O[C@@H](n2cnc3c(N)ncnc32)[C@H](O)[C@@H]1OP(=O)(O)O)[C@@H](O)C(=O)NCCC(=O)NCCSCC(=O)NCCCNCCCN [CNSA, N-[1-(S-coenzyme A)acetyl]-syn-norspermidine amide]
- IC50 (SSAT [6]): 0.3 µM
- activity in intact cells (SSAT [7]): devoid of activity in intact cells

Compound: CCNCCCNCCCCNCCCNCC [DESpm, N′,N″-bis-ethylspermine]
- IC50 [1, 17]: 0.18 µM
- Ki [2, 18]: 1.6 µM
- SSAT up-regulation / stimulation (SSAT [8]): 4.6 fold
- cytotoxicity [10]: cytotoxic
- induction of SSAT ([10]; time- and dose-dependent): above 1700 fold
- induction of SSAT or cytotoxic effect [11]: no significant induction of SSAT or cytotoxic effect
- effect on polyamine pools (polyamine pools): deplete all three polyamine pools

Compound: NCCC[C@](N)(C(=O)O)C(F)F [DFMO, α-difluoromethylornithine]
- Ki (ODC; irreversible inhibitor of ODC): 40 µM
- effect on polyamine pools (polyamine pools): depletes putricine and spermidine pools, but has little effect on Spermine pools

Compound: c1cc(NCCCCNc2ccncc2)ccn1 [PYR (3,4,3)]
- IC50 (NMDA receptor): 8 µM

Compound: NCCCCNCCCN [spermidine]
- nephrotoxicity relative to spermine [14]: approximately one-twentieth

Compound: S-(-5′-deoxy-5′-adenosyl)-1,12-diamino-3-thio-9-azadodecane [AdoDATAD]
- IC50 (spermine synthase): 20 µM
